Measured values taken from patent US7816134B2, “Method of extensive culture of antigen-specific cytotoxic T cells” (Takara Bio Inc., priority 2000, dated 2010).
Read-outs that look alike come from different tables or passages of the source.

How the values were obtained:
[1] = tested on: anti-influenza virus memory CTLs (FluMPA2.1); assay: Expansion ratio of anti-influenza virus memory CTLs (FluMPA2.1), REM method (EBV-B cells added); format: cell-based, human; conditions: Example 3-2, sample 10 μg/ml during CTL induction +, addition of EBV-B cells +
[2] = tested on: HLA-A2.1-having EBV transformed B-cells (221A2.1); assay: Specific cytotoxic activity of MART1-specific CTLs after expansion, EBV transformed B-cell target; format: cell-based, human; conditions: for Cytotoxic Activity (%): target cells 221A2.1, sample induction +, expansion +, peptide addition +
Description: (§2) In the evaluation, as target cells, there were used HLA-A2.1-having EBV transformed B-cells which were cultured in the absence of the epitope peptide (name of cells: 221A2.1); a cancer cell line-having HIA-A2.1 which was cultured for two nights in the presence of 100 U/ml IFN-γ (name of cells: 624mel; MART1 expressed cells having HLA-A2.1); or a cancer cell line not having HLA-A2.1 (name of cells: 888mel; MART1 expressed cells not having HLA-A2.1).
(§3) Stimulation by a peptide was not added at all during this culture. On the first day of the initiation of the culture, IL-2 was added so as to have a final concentration of 120 U/ml. […] However, in the group with no addition of the sample, the sample was not added even during medium exchange.

[3] = tested on: 888mel; MART1 expressed cells not having HLA-A2.1
Description: as §2, §3

[4] = tested on: anti-tumor-associated antigen(MART1)-specific CTLs; assay: Expansion ratio of MART1-specific CTLs; format: cell-based, human; conditions: sample 10 μg/ml: induction +, 14 days
Text: (§1) CTLs prepared in item (1) of Example 2-1 were washed with 5HRPMI, and then made into a suspension having a concentration of 5×10^4 cells/ml. On the other hand, allogenic PBMCs not having HLA-A24 and HLA-A2.1 which were collected in the same manner as in item (1) of Example 1-1 were subjected to X-ray irradiation (3300R), and the cells were washed with the medium and then made into a suspension having a concentration of 5×10^6 cells/ml. These CTLs (2.5×10^4 cells) and allogenic PBMCs (1.25×10^7 cells) were suspended in 10 ml of 5HRPMI, and anti-CD3 antibody (manufactured by Janssen-Kyowa) was further added thereto so as to give a final concentration of 50 ng/ml. The mixture was placed into a flask of 12.5 cm^2 (manufactured by Falcon), and the cells were cultured in a wet-type CO2 incubator at 37° C. for 14 days. […] The expansion ratio (× times ratio) was calculated by dividing the cell count after the expansion by the cell count before the expansion.

[5] = tested on: HLA-A2.1-having EBV transformed B-cells (221A2.1); conditions: for Cytotoxic Activity (%) E/T Ratio 10: Example 3-2, FluMPA2.1, sample 10 μg/ml during CTL induction +, during expansion +, addition of EBV-B cells −; for Cytotoxic Activity (%): sample induction +
[6] = tested on: HLA-A2.1-having EBV transformed B-cells (221A2.1); conditions: for Cytotoxic Activity (%) E/T Ratio 10: Example 3-2, REM method, FluMPA2.1, sample 10 μg/ml during CTL induction +, during expansion +, addition of EBV-B cells +
[7] = tested on: HLA-A2.1-having EBV transformed B-cells (221A2.1); assay: Specific cytotoxic activity of MAGE3-specific CTLs after expansion; format: cell-based, human; conditions: for Cytotoxic Activity (%): sample induction +, expansion +
Text: as §1

[8] = tested on: HLA-A2.1-having EBV transformed B-cells (221A2.1); assay: Cytotoxic activity of anti-tumor-associated antigen(MAGE3)-specific CTLs on the thirty-fifth day after the initiation of induction; conditions: 10 μg/ml
[9] = tested on: anti-tumor-associated antigen(MAGE3)-specific CTLs; assay: Expansion ratio of MAGE3-specific CTLs; format: cell-based, human; conditions: sample 10 μg/ml: induction +, 14 days
Text: as §1

[10] = tested on: anti-influenza virus memory CTLs (FluMPA2.1); format: cell-based, human

Substance: hyaluronic acid
- Expansion Ratio [1]: × 587
- cytotoxic activity after expansion for 14 days (in words) ([2]; MART1-specific CTLs, sample 10 μg/ml during CTL induction and during expansion): specific, high cytotoxic activity
- Cytotoxic Activity (%) ([2]; E/T ratio 2): 9.1%
- Cytotoxic Activity (%) ([2]; E/T ratio 6): 52.8%
- Cytotoxic Activity (%) ([2]; E/T ratio 17): 74.4%
- Cytotoxic Activity (%) [3]: 0%
- Expansion Ratio [4]: × 217
- Cytotoxic Activity (%) E/T Ratio 10 ([5]; peptide addition +): 60.0%
- Cytotoxic Activity (%) E/T Ratio 10 ([5]; peptide addition −): 2.3%
- Cytotoxic Activity (%) ([5]; Example 4-1, expansion +, peptide addition +, E/T ratio 1): 31.1%
- Cytotoxic Activity (%) ([5]; Example 4-1, expansion +, peptide addition +, E/T ratio 3): 49.8%
- Cytotoxic Activity (%) ([5]; Example 4-1, expansion +, peptide addition +, E/T ratio 10): 90.8%
- Cytotoxic Activity (%) ([5]; Example 4-1, expansion +, peptide addition +, E/T ratio 30): 105.6%
- Cytotoxic Activity (%) ([5]; Example 4-1, expansion +, peptide addition −, E/T ratio 1): 7.3%
- Cytotoxic Activity (%) ([5]; Example 4-1, expansion +, peptide addition −, E/T ratio 3): 8.6%
- Cytotoxic Activity (%) ([5]; Example 4-1, expansion +, peptide addition −, E/T ratio 10): 13.1%
- Cytotoxic Activity (%) ([5]; Example 4-1, expansion +, peptide addition −, E/T ratio 30): 17.0%
- Cytotoxic Activity (%) ([5]; Example 4-2, expansion +, peptide addition +, E/T ratio 1): 7.2%
- Cytotoxic Activity (%) ([5]; Example 4-2, expansion +, peptide addition +, E/T ratio 3): 23.3%
- Cytotoxic Activity (%) ([5]; Example 4-2, expansion +, peptide addition +, E/T ratio 10): 59.6%
- Cytotoxic Activity (%) ([5]; Example 4-2, expansion +, peptide addition +, E/T ratio 30): 85.1%
- Cytotoxic Activity (%) ([5]; Example 4-2, expansion +, peptide addition −, E/T ratio 1): 0%
- Cytotoxic Activity (%) ([5]; Example 4-2, expansion +, peptide addition −, E/T ratio 3): 0%
- Cytotoxic Activity (%) ([5]; Example 4-2, expansion +, peptide addition −, E/T ratio 10): 1.9%
- Cytotoxic Activity (%) ([5]; Example 4-2, expansion +, peptide addition −, E/T ratio 30): 14.3%
- Cytotoxic Activity (%) ([5]; Example 4-2, expansion −, peptide addition +, E/T ratio 1): 9.9%
- Cytotoxic Activity (%) ([5]; Example 4-2, expansion −, peptide addition +, E/T ratio 3): 22.1%
- Cytotoxic Activity (%) ([5]; Example 4-2, expansion −, peptide addition +, E/T ratio 10): 47.7%
- Cytotoxic Activity (%) ([5]; Example 4-2, expansion −, peptide addition +, E/T ratio 30): 78.0%
- Cytotoxic Activity (%) ([5]; Example 4-2, expansion −, peptide addition −, E/T ratio 1): 3.0%
- Cytotoxic Activity (%) ([5]; Example 4-2, expansion −, peptide addition −, E/T ratio 3): 1.4%
- Cytotoxic Activity (%) ([5]; Example 4-2, expansion −, peptide addition −, E/T ratio 10): 4.7%
- Cytotoxic Activity (%) ([5]; Example 4-2, expansion −, peptide addition −, E/T ratio 30): 9.3%
- cytotoxic activity after expansion for 14 days (in words) ([5]; sample 10 μg/ml only during CTL induction): specific, high cytotoxic activity
- Cytotoxic Activity (%) E/T Ratio 10 ([6]; peptide addition +): 95.5%
- Cytotoxic Activity (%) E/T Ratio 10 ([6]; peptide addition −): 8.1%
- cytotoxic activity after expansion according to the REM method (in words) ([6]; sample added at the stage of CTL induction prior to the expansion, EBV-B cells added): maintained at a high level
- cytotoxic activity after expansion for 14 days (in words) ([7]; MAGE3-specific CTLs, sample 10 μg/ml during CTL induction and during expansion): specific, high cytotoxic activity
- Cytotoxic Activity (%) ([7]; peptide addition +, E/T ratio 2): 50.3%
- Cytotoxic Activity (%) ([7]; peptide addition +, E/T ratio 6): 67.7%
- Cytotoxic Activity (%) ([7]; peptide addition −, E/T ratio 2): 3.6%
- difference in the cytotoxic activity by the presence or absence of the addition during the induction [8]: almost no difference
- Expansion Ratio [9]: × 217
- Expansion Ratio ([10]; Example 3-2, sample 10 μg/ml during CTL induction +, during expansion +, addition of EBV-B cells −): × 335
- Expansion Ratio ([10]; Example 4-1, sample 10 μg/ml: induction +, expansion +, 14 days): × 493
- Expansion Ratio ([10]; Example 4-2, sample 10 μg/ml: induction +, expansion +, 14 days): × 423
- Expansion Ratio ([10]; Example 4-2, sample 10 μg/ml: induction +, expansion −, 14 days): × 393
